Experiments:
Experiment in all cases: relative viability (nuclei count vs DMSO), 5 days (fraction); higher = more cells survive
Decitabine + Olaparib = compound: Nc1ncn([C@H]2C[C@H](O)[C@@H](CO)O2)c(=O)n1 [Decitabine] + O=C(c1cc(Cc2n[nH]c(=O)c3ccccc23)ccc1F)N1CCN(C(=O)C2CC2)CC1 [Olaparib] (partner 8 µM)
In short: (§1)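 Nuclei were stained with Hoechst during a one-step fixation (final 0.05% Triton X-100, 1% formaldehyde, 1 ug/ml Hoechst) carried out 5 days after dosing, then counted on 4× images. The cells, lung cancer lines in 1536-well plates, had been dosed by pin tool the day after seeding with one drug alone or a fixed anchor-drug dose plus five library-drug doses (not always all listed) in √10 steps. Relative viability is the nuclei count in treated wells divided by that in vehicle wells, and each value is the median of duplicate plates.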

Cediranib + OSI-027 = compound: COc1cc2c(Oc3ccc4[nH]c(C)cc4c3F)ncnc2cc1OCCCN1CCCC1 [Cediranib] + COc1cccc2cc(-c3nc([C@H]4CC[C@H](C(=O)O)CC4)n4ncnc(N)c34)[nH]c12 [OSI-027] (partner 0.5 µM)
In short: as §1

Cediranib + Pictilisib = compound: COc1cc2c(Oc3ccc4[nH]c(C)cc4c3F)ncnc2cc1OCCCN1CCCC1 [Cediranib] + CS(=O)(=O)N1CCN(Cc2cc3nc(-c4cccc5[nH]ncc45)nc(N4CCOCC4)c3s2)CC1 [Pictilisib] (partner 1 µM)
In short: as §1

Decitabine + Alpelisib = compound: Nc1ncn([C@H]2C[C@H](O)[C@@H](CO)O2)c(=O)n1 [Decitabine] + Cc1nc(NC(=O)N2CCC[C@H]2C(N)=O)sc1-c1ccnc(C(C)(C)C(F)(F)F)c1 [Alpelisib] (partner 2 µM)
In short: as §1

Row | Cell Line | relative viability (Decitabine + Olaparib; first compound 0.04 µM) | relative viability (Decitabine + Olaparib; first compound 0.1265 µM) | relative viability (Decitabine + Olaparib; first compound 0.4 µM) | relative viability (Decitabine + Olaparib; first compound 1.265 µM) | relative viability (Decitabine + Olaparib; first compound 4 µM) | relative viability (Cediranib + OSI-027; first compound 0.04 µM) | relative viability (Cediranib + OSI-027; first compound 0.4 µM) | relative viability (Cediranib + OSI-027; first compound 1.265 µM) | relative viability (Cediranib + OSI-027; first compound 4 µM) | relative viability (Cediranib + Pictilisib; first compound 0.04 µM) | relative viability (Cediranib + Pictilisib; first compound 0.4 µM) | relative viability (Cediranib + Pictilisib; first compound 1.265 µM) | relative viability (Cediranib + Pictilisib; first compound 4 µM) | relative viability (Decitabine + Alpelisib; first compound 0.04 µM) | relative viability (Decitabine + Alpelisib; first compound 0.1265 µM) | relative viability (Decitabine + Alpelisib; first compound 0.4 µM) | relative viability (Decitabine + Alpelisib; first compound 1.265 µM) | relative viability (Decitabine + Alpelisib; first compound 4 µM) | relative viability (Cediranib + OSI-027; first compound 0.1265 µM) | relative viability (Cediranib + Pictilisib; first compound 0.1265 µM)
1 | NCI-H23 | 0.229 | 0.2 | 0.166 | 0.134 | 0.154 | 0.511 | 0.557 | 0.511 | 0.582 | 0.472 | 0.533 | 0.345 | 0.569 | 0.604 | 0.391 | 0.275 | 0.218 | 0.238 |  | 
2 | NCI-H322M | 0.641 | 0.684 | 0.646 | 0.47 | 0.383 | 0.541 | 0.535 | 0.52 | 0.538 | 0.52 | 0.533 | 0.467 | 0.521 | 0.659 | 0.613 | 0.71 | 0.498 | 0.403 | 0.567 | 0.698
3 | NCI-H358 | 0.27 | 0.182 | 0.165 | 0.1 | 0.106 | 0.812 | 0.683 | 0.609 | 0.845 | 0.323 | 0.314 | 0.271 | 0.404 | 0.747 | 0.519 | 0.383 | 0.266 | 0.238 | 0.967 | 0.462
4 | NCI-H441 | 0.151 | 0.219 | 0.157 | 0.128 | 0.136 | 0.809 | 0.658 | 0.675 | 0.632 | 0.492 | 0.45 | 0.378 | 0.426 | 0.412 | 0.334 | 0.276 | 0.214 | 0.259 |  | 0.474
5 | NCI-H460 | 0.176 | 0.118 | 0.0739 | 0.0563 | 0.0657 | 0.852 | 0.573 | 0.605 | 0.613 | 0.466 | 0.355 | 0.33 | 0.397 | 0.425 | 0.575 | 0.348 | 0.268 | 0.191 | 0.684 | 0.7
6 | NCI-H520 | 0.201 | 0.297 | 0.251 | 0.188 | 0.167 | 0.403 | 0.211 | 0.202 | 0.226 | 0.312 | 0.246 | 0.221 | 0.22 | 0.896 | 0.69 | 0.597 | 0.369 | 0.337 | 0.239 | 
7 | NCI-H596 | 0.609 | 0.602 | 0.353 | 0.431 | 0.56 | 0.775 | 0.723 |  | 0.788 | 0.458 | 0.348 | 0.37 | 0.241 | 0.449 | 0.46 | 0.462 | 0.451 | 0.407 | 0.815 | 0.493
8 | NCI-H647 | 0.154 | 0.131 | 0.103 | 0.0693 | 0.0747 | 0.614 | 0.549 | 0.49 | 0.841 | 0.429 | 0.392 | 0.324 | 0.385 | 0.971 | 0.858 | 0.632 | 0.201 | 0.254 | 0.694 | 
9 | NCI-H650 | 0.196 | 0.198 | 0.203 | 0.123 | 0.152 | 0.485 | 0.508 | 0.499 | 0.542 | 0.848 | 0.836 | 0.915 | 1.04 | 0.739 | 0.538 | 0.484 | 0.326 | 0.29 | 0.521 | 0.956
10 | NCI-H661 | 0.56 | 0.459 | 0.409 | 0.345 | 0.338 | 0.734 | 0.71 | 0.686 | 0.669 | 0.428 | 0.419 | 0.318 | 0.366 | 0.432 | 0.44 | 0.313 | 0.246 | 0.342 | 0.686 | 0.588
11 | NCI-H727 | 0.643 | 0.54 | 0.685 | 0.55 | 0.481 |  | 0.523 | 0.468 | 0.617 | 0.515 | 0.289 | 0.325 | 0.3 | 0.453 | 0.405 | 0.333 | 0.35 | 0.401 | 0.486 | 0.169
12 | NCI-H838 | 0.26 | 0.273 | 0.261 | 0.193 | 0.199 | 0.41 | 0.379 | 0.348 | 0.483 | 0.542 | 0.395 | 0.275 | 0.558 | 0.715 | 0.461 | 0.409 | 0.396 | 0.276 | 0.364 | 0.46
13 | NCI-H1355 | 0.33 | 0.348 | 0.245 | 0.194 | 0.195 | 0.38 | 0.387 | 0.34 | 0.449 | 0.392 | 0.41 | 0.263 | 0.476 | 0.632 | 0.536 | 0.412 | 0.295 | 0.266 | 0.363 | 0.273
14 | NCI-H1395 | 0.518 | 0.432 | 0.465 | 0.438 | 0.418 | 0.628 | 0.62 | 0.615 | 0.608 | 0.58 | 0.593 | 0.557 | 0.591 | 0.821 | 0.776 | 0.786 | 0.518 | 0.631 | 0.751 | 
15 | NCI-H1437 | 0.435 | 0.416 | 0.381 | 0.268 | 0.246 | 0.841 | 0.796 | 0.851 | 1.02 | 0.484 | 0.442 | 0.228 | 0.499 | 0.787 | 0.679 | 0.464 | 0.246 | 0.215 | 0.992 | 0.413
16 | NCI-H1651 | 0.136 | 0.163 | 0.12 | 0.144 | 0.118 | 0.59 | 0.721 | 0.606 | 0.778 | 0.666 | 0.533 | 0.458 | 0.445 | 0.834 | 0.902 | 0.861 | 0.718 | 0.633 | 0.652 | 0.77
17 | NCI-H1666 | 0.65 | 0.698 | 0.723 | 0.619 | 0.651 | 0.9 | 0.891 | 0.802 | 0.805 | 0.383 | 0.422 | 0.5 | 0.431 | 0.797 | 0.753 | 0.606 | 0.489 | 0.473 | 0.809 | 0.475
18 | NCI-H1734 | 0.274 | 0.302 | 0.203 | 0.152 | 0.191 | 0.517 | 0.583 | 0.515 | 0.64 | 0.457 | 0.54 | 0.365 | 0.47 | 0.5 | 0.615 | 0.535 | 0.399 | 0.324 | 0.705 | 0.541
19 | NCI-H1755 | 0.648 | 0.609 | 0.43 | 0.359 | 0.365 | 0.601 | 0.689 | 0.694 | 0.81 | 0.329 | 0.415 | 0.392 | 0.396 | 0.847 | 0.858 | 0.825 | 0.511 | 0.348 | 0.565 | 0.349
20 | NCI-H1792 | 0.211 | 0.288 | 0.148 | 0.0819 | 0.116 | 0.731 | 0.661 | 0.76 | 0.757 | 0.305 | 0.3 | 0.312 | 0.291 | 0.619 | 0.765 | 0.724 | 0.383 | 0.323 | 0.732 | 0.33
21 | NCI-H1793 | 0.455 | 0.307 | 0.281 | 0.19 | 0.212 | 0.271 | 0.245 |  | 0.301 | 0.404 | 0.345 |  | 0.299 | 0.695 | 0.565 | 0.573 | 0.433 | 0.392 | 0.276 | 0.294
22 | NCI-H1915 | 0.173 | 0.169 | 0.142 | 0.124 | 0.145 | 0.559 | 0.566 | 0.624 | 0.669 | 0.874 | 0.87 | 0.837 | 1.04 | 0.475 | 0.301 | 0.272 | 0.227 | 0.247 | 0.516 | 0.722
23 | NCI-H1944 | 0.281 | 0.307 | 0.255 | 0.192 | 0.207 | 0.382 | 0.422 | 0.39 | 0.429 | 0.33 | 0.328 | 0.297 | 0.328 | 0.874 | 0.797 | 0.725 | 0.473 | 0.435 | 0.513 | 0.494
24 | NCI-H1975 | 0.292 | 0.266 | 0.232 | 0.193 | 0.174 | 0.691 | 0.686 | 0.638 | 0.801 | 0.316 | 0.275 | 0.239 | 0.29 | 0.414 | 0.357 | 0.318 | 0.292 | 0.275 | 0.773 | 0.466
25 | NCI-H1993 | 0.647 | 0.614 | 0.625 | 0.44 | 0.473 | 0.421 | 0.548 | 0.506 | 0.545 | 0.883 | 0.719 | 0.805 | 0.809 | 0.775 | 0.725 | 0.629 | 0.699 | 0.634 | 0.579 | 0.806
26 | NCI-H2009 | 0.475 | 0.261 | 0.322 | 0.215 | 0.293 | 0.548 | 0.658 | 0.518 | 0.639 | 0.769 | 0.644 | 0.639 | 0.822 | 1 | 0.88 | 0.593 | 0.413 | 0.303 | 0.538 | 0.325
27 | NCI-H2023 | 0.137 | 0.15 | 0.126 | 0.0911 | 0.0823 | 0.342 | 0.374 | 0.385 | 0.415 | 0.269 | 0.226 | 0.193 | 0.236 | 0.438 | 0.461 | 0.305 | 0.214 | 0.188 | 0.402 | 0.101
